# Source: patent publication US20230145835A1, “Modulators of Alpha-4-beta-7 Integrin and MAdCAM” (48HD Biopharma Inc., priority 2021, published 2023)
# Numbered stars: 1 amine (or outer) side, 2 acyl side, 3 side chain; on linkers, the order of the positions; unused ones are H or OH. Bridge positions count the residues as written; N and C are the ends. Square brackets hold non-standard residues; d marks the D form. Peptide text beside a SMILES is read from it. X3 = O=C(/C=N/OCCCCCCOc1cc(C[*:2])cc(C[*:3])c1)[*:1]; X1 = O=C(C=NOCCCCCCOc1cc(C[*:2])cc(C[*:3])c1)[*:1]; Met(O) = CS(=O)CC[C@H](N)C(=O)O; Nle = CCCC[C@H](N)C(=O)O
# Test system: not listed separately
# Assay: Simulated Intestinal Fluid Assay
# Settings: FaSSIF, LCMS/MS
# Experimental: Studies were carried out in simulated intestinal fluid (SIF) to evaluate the intestinal stability of the peptide molecules of the peptides of the instant disclosure. A Fasted State Simulated Intestinal Fluid (FaSSIF) reagent was prepared according to methods known in the art (including addition of the enzyme pancreatin), to which stock peptide solutions were added, incubated, quenched, and analyzed using LCMS/MS.
# Percent remaining at each time point was calculated based on the peak area response ratio of test to compound to internal standard. Half-lives were calculated by fitting to a first-order exponential decay equation using GraphPad.
row,Structure (SMILES),Comments
1,C[C@@H](O)[C@H](NC(=O)[C@H](CC(=O)O)NC(=O)[C@@H]1CCCN1C(=O)[C@H](Cc1ccc(O)cc1)NC(=O)[C@H](CS)NC(=O)[C@H](CC(=O)O)NC(=O)[C@@H](N)CO)C(=O)N[C@@H](Cc1ccc(O)cc1)C(=O)N[C@@H](Cc1c[nH]cn1)C(=O)N[C@@H](CS)C(=O)O [SEQ ID NO. 13] (H-SDCYPDTYHC-OH),No peak

# Same assay, conditions: simulated gi fluid
row,half-life,Structure (SMILES)
1,72.3 min,CC(C)C[C@@H]1NC(=O)[C@@H]2CSCc3cc(cc(c3)OCCCCCCO/N=C/C(=O)N[C@@H](Cc3ccccc3)C(=O)N2)CSC[C@@H](C(N)=O)NC(=O)[C@H](CO)NC(=O)[C@H](C)NC(=O)[C@H](CCC(=O)O)NC(=O)[C@H](Cc2ccc(O)cc2)NC(=O)CNC1=O [SEQ ID NO: 22] (FCLGYEASC-NH2; linker N-2-9 via X3)
2,64.3 min,CC(C)C[C@@H]1NC(=O)[C@@H]2CCCN2C(=O)[C@H](Cc2c[nH]c3ccccc23)NC(=O)[C@@H]2CCCN2C(=O)[C@@H]2CSCc3cc(cc(c3)OCCCCCCON=CC(=O)N[C@@H](CCC(=O)O)C(=O)N2)CSC[C@@H](C(=O)O)NC(=O)[C@H](CCC(N)=O)NC(=O)[C@@H]2CCCN2C1=O [SEQ ID NO. 15] (ECPWPLPQC-OH; linker N-2-9 via X1)
3,8.23 min,CSCC[C@@H]1NC(=O)C=NOCCCCCCOc2cc3cc(c2)CSC[C@H](NC1=O)C(=O)N1CCC[C@H]1C(=O)N[C@@H](CC(C)C)C(=O)N[C@@H](Cc1ccc(O)cc1)C(=O)N[C@@H](CCCCN)C(=O)N[C@@H](C(C)C)C(=O)N[C@@H](Cc1c[nH]cn1)C(=O)N[C@H](C(=O)O)CSC3 [SEQ ID NO. 8] (MCPLYKVHC-OH; linker N-2-9 via X1)
4,19.7 min,CSCC[C@@H]1NC(=O)[C@H](CCCNC(=N)N)NC(=O)CNC(=O)[C@H](Cc2ccc(O)cc2)NC(=O)[C@H](Cc2c[nH]c3ccccc23)NC(=O)[C@H](CCC(N)=O)NC(=O)[C@@H]2CSCc3cc(cc(c3)OCCCCCCON=CC(=O)N[C@@H](C)C(=O)N2)CSC[C@@H](C(=O)O)NC1=O [SEQ ID NO. 21] (ACQWYGRMC-OH; linker N-2-9 via X1)
5,207 min,C[C@@H](O)[C@@H]1NC(=O)[C@H](CC(=O)O)NC(=O)[C@@H]2CCCN2C(=O)[C@H](Cc2ccc(O)cc2)NC(=O)[C@@H]2CSCc3cc(cc(c3)OCCCCCCON=CC(=O)N[C@@H](CC(=O)O)C(=O)N2)CSC[C@@H](C(=O)O)NC(=O)[C@H](Cc2c[nH]cn2)NC(=O)[C@H](Cc2ccc(O)cc2)NC1=O [SEQ ID NO. 16] (DCYPDTYHC-OH; linker N-2-9 via X1)
6,23.6 min,CSCC[C@H](NC(=O)[C@@H](N)CO)C(=O)N[C@H]1CSSC[C@@H](C(=O)O)NC(=O)[C@H](Cc2c[nH]cn2)NC(=O)[C@H](C(C)C)NC(=O)[C@H](CCCCN)NC(=O)[C@H](Cc2ccc(O)cc2)NC(=O)[C@H](CC(C)C)NC(=O)[C@@H]2CCCN2C1=O [SEQ ID NO. 5] (H-SMCPLYKVHC-OH; disulfide 3-10)

row,Structure (SMILES),half-life
1,N=C(N)NCCC[C@@H]1NC(=O)CNC(=O)[C@H](Cc2ccc(O)cc2)NC(=O)[C@H](Cc2c[nH]c3ccccc23)NC(=O)[C@H](Cc2c[nH]cn2)NC(=O)[C@@H]2CSCc3cc(cc(c3)OCCCCCCON=CC(=O)N[C@@H](CCC(N)=O)C(=O)N2)CSC[C@@H](C(=O)O)NC(=O)[C@H](CO)NC1=O [SEQ ID NO. 19] (QCHWYGRSC-OH; linker N-2-9 via X1),> 480 min
2,"O=C(O)CCCc1ccc(N(CCCl)CCCl)cc1 [Chlorambucil, chlorambucil, reference compound]",37.6 min

# Molecular target: T1, rh-integrin α4β7/LPAM-1 (Homo sapiens, UniProt P13612+P26010)
# T1 sequence (P13612 34-977 limits assumed): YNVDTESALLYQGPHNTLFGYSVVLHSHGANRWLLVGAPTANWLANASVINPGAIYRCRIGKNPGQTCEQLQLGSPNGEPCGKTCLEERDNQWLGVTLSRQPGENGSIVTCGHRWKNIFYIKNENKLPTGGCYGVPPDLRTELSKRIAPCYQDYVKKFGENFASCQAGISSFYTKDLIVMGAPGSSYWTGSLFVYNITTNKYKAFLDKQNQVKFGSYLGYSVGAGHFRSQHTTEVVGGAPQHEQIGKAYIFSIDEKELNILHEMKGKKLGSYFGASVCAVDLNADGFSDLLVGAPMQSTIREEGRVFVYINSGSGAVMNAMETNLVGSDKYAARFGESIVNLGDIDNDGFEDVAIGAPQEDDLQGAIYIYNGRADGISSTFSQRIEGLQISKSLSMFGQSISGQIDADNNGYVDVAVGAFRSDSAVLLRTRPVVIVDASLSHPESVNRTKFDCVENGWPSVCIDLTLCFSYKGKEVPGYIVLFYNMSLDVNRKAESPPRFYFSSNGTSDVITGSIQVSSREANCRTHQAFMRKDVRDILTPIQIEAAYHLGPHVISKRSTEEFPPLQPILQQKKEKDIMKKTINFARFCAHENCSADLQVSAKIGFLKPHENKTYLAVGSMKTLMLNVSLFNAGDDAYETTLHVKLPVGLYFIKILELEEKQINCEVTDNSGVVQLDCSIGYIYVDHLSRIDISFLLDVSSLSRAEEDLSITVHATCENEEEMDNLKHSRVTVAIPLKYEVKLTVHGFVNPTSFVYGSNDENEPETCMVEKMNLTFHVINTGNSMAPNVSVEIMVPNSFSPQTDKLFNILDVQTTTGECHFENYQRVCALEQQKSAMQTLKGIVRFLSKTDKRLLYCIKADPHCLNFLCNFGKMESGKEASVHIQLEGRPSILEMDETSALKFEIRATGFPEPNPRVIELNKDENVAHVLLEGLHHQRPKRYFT
# T1 sequence (P26010 20-723 limits assumed): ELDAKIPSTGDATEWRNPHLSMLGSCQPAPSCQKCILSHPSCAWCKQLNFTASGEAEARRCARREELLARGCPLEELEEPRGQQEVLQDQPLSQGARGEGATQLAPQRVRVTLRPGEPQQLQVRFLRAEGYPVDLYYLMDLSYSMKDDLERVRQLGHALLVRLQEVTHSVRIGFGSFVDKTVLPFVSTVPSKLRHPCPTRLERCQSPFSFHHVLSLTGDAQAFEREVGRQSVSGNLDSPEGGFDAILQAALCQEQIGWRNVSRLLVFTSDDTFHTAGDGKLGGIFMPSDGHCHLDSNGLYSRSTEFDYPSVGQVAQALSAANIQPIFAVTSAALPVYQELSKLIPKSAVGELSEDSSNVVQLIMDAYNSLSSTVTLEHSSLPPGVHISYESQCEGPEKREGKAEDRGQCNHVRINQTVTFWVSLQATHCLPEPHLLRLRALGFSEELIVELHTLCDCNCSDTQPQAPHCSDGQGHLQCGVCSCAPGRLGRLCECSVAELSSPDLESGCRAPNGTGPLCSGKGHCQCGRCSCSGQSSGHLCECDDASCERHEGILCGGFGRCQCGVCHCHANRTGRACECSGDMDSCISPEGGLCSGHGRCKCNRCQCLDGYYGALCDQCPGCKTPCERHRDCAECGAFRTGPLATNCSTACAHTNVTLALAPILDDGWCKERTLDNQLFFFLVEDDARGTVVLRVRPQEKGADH
# Assay: α4β7-MadCAM Competition ELISA (Example 4)
# Type: binding
# Settings: Table 3 Representative compounds; inhibition of MAdCAM binding to coated α4β7; read-out: IC50
# Experimental: After washing with wash buffer, 200 μL assay buffer was added to each well and incubated for one hour at 28° C. After another wash with wash buffer, 100 μL of a MAdCAM and peptide mixture in assay buffer was added to each well and incubated for one hour at 28° C., followed by washing with wash buffer.
row,Structure (SMILES),IC50
1,CC(=O)N[C@H]1CSSC[C@@H](C(N)=O)NC(=O)[C@H](CC(C)C)NC(=O)[C@H]([C@@H](C)O)NC(=O)[C@H](CC(=O)O)NC(=O)[C@H](CO)NC(=O)[C@H](CCCNC(=N)N)NC1=O [compound 5] (Ac-CRSDTLC-NH2; disulfide 1-7),122 nM
2,"CC[C@H](C)[C@@H]1NC(=O)[C@H](C)NC(=O)[C@H](CC[S+](C)[O-])NC(=O)[C@@H]2CCCN2C(=O)[C@@H]2CSCc3cc(cc(c3)OCCCCCCO/N=C/C(=O)N[C@@H](CCC(N)=O)C(=O)N2)CSC[C@@H](C(N)=O)NC(=O)[C@H]([C@@H](C)O)NC(=O)[C@@H]2CCCN2C1=O (stereo partly drawn) [compound 99, TSL6-SQCP{Ox-Met} AIPTC] (QCP[Met(O)]AIPTC-NH2; linker N-2-9 via X3)",152000 nM
3,"C[C@@H](O)[C@@H]1NC(=O)[C@H](CC(=O)O)NC(=O)[C@@H]2CCCN2C(=O)[C@H](Cc2ccccc2)NC(=O)[C@@H]2CSCc3cc(cc(c3)OCCCCCCO/N=C/C(=O)N[C@@H](CC(=O)O)C(=O)N2)CSC[C@@H](C(N)=O)NC(=O)[C@H](Cc2cnc[nH]2)NC(=O)[C@H](Cc2ccc(O)cc2)NC1=O [compound 84, TSL6- SDCFPDTYHC] (DCFPDTYHC-NH2; linker N-2-9 via X3)",65700 nM
4,CCCC[C@@H]1NC(=O)[C@@H]2CCCN2C(=O)[C@@H]2CSCc3cc(cc(c3)OCCCCCCO/N=C/C(=O)N[C@@H](CCCNC(=N)N)C(=O)N2)CSC[C@@H](C(N)=O)NC(=O)[C@H](CCC(=O)O)NC(=O)CNC(=O)[C@H](C)NC(=O)[C@H](C(C)C)NC(=O)[C@H](CC(=O)O)NC1=O [compound 15] (RCP[Nle]DVAGEC-NH2; linker N-2-10 via X3),261 nM
5,CC(C)C[C@@H]1NC(=O)[C@H]([C@@H](C)O)NC(=O)[C@H](CC(=O)O)NC(=O)[C@H](CO)NC(=O)[C@H](CCCNC(=N)N)N(C)C(=O)c2ccccc2CSC(C)(C)[C@@H](C(=O)N[C@@H](Cc2c[nH]c3ccccc23)C(=O)N[C@H](CCC(=O)O)C(N)=O)NC1=O [compound 1],3 nM
6,CC[C@H](C)[C@@H]1NC(=O)[C@H](CC(=O)O)NC(=O)[C@H](CCSC)NC(=O)[C@@H]2CCCN2C(=O)[C@@H]2CSCc3cc(cc(c3)OCCCCCCO/N=C/C(=O)N[C@@H](CCCNC(=N)N)C(=O)N2)CSC[C@@H](C(N)=O)NC(=O)[C@H](CCC(=O)O)NC(=O)CNC(=O)[C@H](C)NC1=O [compound 13] (RCPMDIAGEC-NH2; linker N-2-10 via X3),227 nM
7,"CSCC[C@@H]1NC(=O)[C@@H]2CCCN2C(=O)[C@@H]2CSCc3cc(cc(c3)OCCCCCCO/N=C/C(=O)N[C@@H](CCCNC(=N)N)C(=O)N2)CSC[C@@H](C(N)=O)NC(=O)[C@H](CCC(=O)O)NC(=O)CNC(=O)[C@H](C)NC(=O)[C@H](C(C)C)NC(=O)[C@H](CC(=O)O)NC1=O [compound 23, TSL6- SRCPMDVAGEC] (RCPMDVAGEC-NH2; linker N-2-10 via X3)",511 nM
8,"CC(C)C[C@@H]1NC(=O)[C@@H]2CCCN2C(=O)[C@H](Cc2c[nH]c3ccccc23)NC(=O)[C@@H]2CCCN2C(=O)[C@@H]2CSCc3cc(cc(c3)OCCCCCCO/N=C/C(=O)N[C@@H](CCC(=O)O)C(=O)N2)CSC[C@@H](C(N)=O)NC(=O)[C@H](CCC(N)=O)NC(=O)[C@@H]2CCCN2C1=O [compound 105, TSL6- SECPWPLPQC] (ECPWPLPQC-NH2; linker N-2-9 via X3)",341000 nM

# Same assay, conditions: competition ELISA, 4 μg/mL α4β7 coated, MAdCAM and peptide mixture, 28° C.; read-out: IC50
row,Structure (SMILES),IC50
1,CCCC[C@@H]1NC(=O)[C@@H]2CCCN2C(=O)[C@@H]2CSCc3cc(cc(c3)OCCCCCCON=CC(=O)N[C@@H](CCCNC(=N)N)C(=O)N2)CSC[C@@H](C(=O)O)NC(=O)[C@H](CCC(=O)O)NC(=O)CNC(=O)[C@H](C)NC(=O)[C@H](C(C)C)NC(=O)[C@H](CC(=O)O)NC1=O [SEQ ID NO: 138] (RCP[Nle]DVAGEC-OH; linker N-2-10 via X1),261 nM
